{"source": "patent US20220016241A1", "about": "“COMPOSITIONS AND METHODS FOR REDUCING ANTIGEN-SPECIFIC IMMUNOGENICITY” (The Research Foundation for The State University of New York, priority 2013, published 2022)", "key": {"anti-FVIII titers": {"test_system": "anti-FVIII titers", "test": "Tolerance induction and FVIII re-challenge study (FVIII, FVIII plus OPLS, FVIII plus Dexamethasone)", "assay_type": "in vivo, HA mice", "conditions": "co-administered sc with 1 μg FVIII, 4 weekly", "protocol": "Tolerance induction studies in HA mice: Breeding pairs of exon 16 knockout transgenic hemophilic mice (HA) were used. All animal studies were conducted in accordance with an approved protocol by the Institutional Animal Use and Care Committee at the University at Buffalo, State University of New York.\nImmunization and re-challenge schedule: To delineate whether OPLS mediated reduction of antibody titer is due to immune tolerance or immune suppression, we performed re-challenge experiments. Forty HA mice were pre-treated with FVIII, FVIII plus OPLS or FVIII plus Dexamethasone once-a-week for four consecutive weeks by sc injections of endotoxin free formulation of 1 μg of FVIII alone or with 5 mg OPLS or 200 ng Dexamethasone (Dex) as shown in FIG. 32. The injections were prepared in TRIS buffers containing 25 mM TRIS and 150 mM NaCl at pH 7.5. For OPLS containing formulations, OPLS was added to the buffer and the pH adjusted to 7.5. The appropriate amount of FVIII was added immediately before injection to prevent complexation between FVIII and OPLS pre-injection. […] Total anti-FVIII titer levels were measured by ELISA.\nStatistics: Non-parametric one-way ANOVA with Tukey's post hoc analysis was used for the analysis of titer values where appropriate. Student t-test was used for comparing mean intensity of fluorescence (MIF) for flow cytomerty data. […]"}, "IL-12p70": {"test_system": "IL-12p70", "test": "Cytokine profile of BMDCs in vitro, IL-12p70 ELISA", "assay_type": "cell-based, HA mice", "conditions": "1 μg/ml FVIII with 50 mM OPLS, 48 hours, n=4", "protocol": "Generation of bone marrow derived dendritic cells (BMDC): Bone marrow was isolated from 6 to 8 week old naïve HA. Briefly, bone marrow was cultured in RPMI media supplemented with […] (low endotoxin), 2-mercaptoethanol, Pen/Strep and […] GMCSF. Media was changed on days 3, 6 and 8 of culture and DCs were used on day 9. BMDC are then harvested and used as needed. To verify the differentiation of bone marrow cells into DCs, CD11c surface expression was confirmed by flow cytometry using anti-CD11c-FITC antibody with appropriate isotope controls.\nEffects of OPLS on cytokine profile of BMDCs in vitro: The effects of OPLS on cytokine secretion by dendritic cells were investigated. On day 9 BMDCs, generated as above, were treated with FVIII as an antigen in the presence of increasing dose of OPLS. Changes in production of pro-inflammatory cytokines TNF-α and IL12p70 as well as the regulatory cytokine TGF-β were monitored as a function of dose. BMDCs were exposed to 1 μg/ml FVIII with increasing dose of OPLS (0, 0.5, 1, 10, 25, 50 mM). 1 M stock of OPLS was prepared by adding the appropriate amount of OPLS directly to RPMI media, and pH was adjusted using sterile 3N and 1N NaOH. […] TGF-β, TNF-α and IL-12p70 concentrations were determined using standard ELISA (R&D System Inc. Minneapolis, Minn., USA or Invitrogen […], Calif.)."}, "[1]": {"test": "PK of FVIII in the presence and absence of OPLS", "assay_type": "in vivo, HA mice"}, "anti-KLH IgG titer": {"test_system": "anti-KLH IgG titer", "test": "28-day repeat dose TDAR study, anti-KLH IgG", "assay_type": "in vivo, CD-1 mice", "conditions": "28 daily doses, any OPLS dose", "source_text": "FIG. 20. Anti-KLH IgG titer levels obtained from a short term, repeat dose (28 daily doses) TDAR study conducted in CD-1 mice."}, "lymphocyte subsets": {"test_system": "lymphocyte subsets", "test": "Lymphocyte subsets in peripheral blood after 21 daily doses of OPLS", "assay_type": "in vivo, rhesus macaques", "conditions": "21 daily doses of 25 mg/kg", "protocol": "FIG. 23. Effect of 21 daily doses of 25 mg/kg OPLS on lymphocyte subsets in peripheral blood of rhesus macaques. Samples were drawn from the animals at baseline (day 0), at an intermediate time point during treatment (day 8) and 1 day after the termination of dosing (day 22) and immunophenotyped using flow cytometry. […] (*p value<0.05)."}, "anti-FVIII total titers": {"test_system": "anti-FVIII total titers", "test": "OPLS-FVIII sequential administration study", "assay_type": "in vivo, Hemophilia A mice", "conditions": "5 mg OPLS then 1 μg FVIII 5 minutes later, same site, 4 weekly sc; 4 weekly iv rechallenge", "protocol": "To determine if OPLS can exert its immunomodulatory effects on the immune response to FVIII when the two are administered in separate injections temporally spaced apart, at the same injection site the following experiments were carried out. Hemophilia A mice (n=6 animals/group) were immunized with 4 weekly sc injections as follows. The control group of animals received one injection of sterile TRIS buffer (100 μL volume) then, after a 5 minute wait, they received a second injection of 1 μg FVIII in sterile TRIS (100 μL volume) at the same injection site. The second group of mice received one injection of 5 mg OPLS (100 μL volume) then, after a 5 minute wait, they received a second injection of 1 μg FVIII in sterile TRIS (100 μL volume) at the same injection site. After a two-week rest period (week 6) all of the mice were then rechallenged with 4 weekly intravenous injections of 1 μg of FVIII in 100 μL sterile TRIS […]. Mice were sacrificed after two weeks and a terminal blood sample was collected using cardiac puncture. Analysis was done by ELISA for total titers. […] This administration method was able to induce a hypo-responsiveness towards FVIII."}, "[2]": {"test": "Safety of repeated high doses of OPLS", "assay_type": "in vivo, rodent and primate models", "conditions": "up to 950 mg", "protocol": "Given that the methods disclosed herein appear to work best with doses of OPLS that equal or exceed 5 mg, it is important to understand the safety and toxicity of high doses of OPLS."}, "[3]": {"test_system": "anti-FVIII antibody titers", "test": "FVIII-specific tolerance with OPLS, OPDS or Dex, rechallenge with free FVIII (FIG. 11)", "conditions": "s.c. co-administration with FVIII, then s.c. free FVIII"}}}
{"compound": "N[C@@H](COP(=O)(O)O)C(=O)O", "note": "[OPLS, O-Phospho-L-Serine]", "values": [{"measurement": "Anti-FVIII antibody response during the pre-treatment stage", "setting": "anti-FVIII titers", "value": "reduced"}, {"measurement": "IL-12p70 production by BMDC", "setting": "IL-12p70", "value": "total shut down"}, {"measurement": "FVIII plasma exposure after intravenous co-administration", "setting": "[1]; iv, FIG. 4", "value": "slight increase"}, {"measurement": "Bioavailability after subcutaneous co-administration", "setting": "[1]; sc co-administration vs biotherapeutic alone", "value": "improves"}, {"measurement": "Lymphatic uptake from the subcutaneous space", "setting": "[1]; sc co-administration vs biotherapeutic alone, FIGS. 5A and 5B", "value": "improves"}, {"measurement": "Anti-KLH IgG titer levels vs vehicle", "setting": "anti-KLH IgG titer", "value": "No statistical significance"}, {"measurement": "% of B-cells", "setting": "lymphocyte subsets", "value": "transient increase"}, {"measurement": "Lymphocyte subsets, baseline vs post treatment", "setting": "lymphocyte subsets; days 0, 8, 22", "value": "no significant change"}, {"measurement": "Total anti-FVIII titers after rechallenge vs free FVIII", "setting": "anti-FVIII total titers", "value": "significantly lower"}, {"measurement": "Tolerability of repeated, high doses", "setting": "[2]", "value": "well tolerated"}, {"measurement": "FVIII-specific hypo-responsiveness upon rechallenge", "setting": "[3]", "value": "hypo-responsiveness"}]}
